Measured values reported in publication PMC10165273, “Itch receptor MRGPRX4 interacts with the receptor activity–modifying proteins” (The Journal of Biological Chemistry, 2023).
“And” between values parts separate entries of the source, which are not always exact repeats. Identical values can stand only once. Like-named read-outs stand apart in the source and are kept apart here.

Legend:
MRGPRX4 + RAMP2 = target: T1, MRGPRX4 + RAMP2 (Homo sapiens, UniProt Q96LA9); experiment: IP1 accumulation, MRGPRX4 coexpressed with RAMP2; format: cell-based; conditions: MRGPRX4+RAMP2 1pg 1:1, Supplementary Figure 5e, 5g
T1 construct: expressed in transfected cells; host or cells: HEK293T
T1 sequence (Q96LA9 whole entry): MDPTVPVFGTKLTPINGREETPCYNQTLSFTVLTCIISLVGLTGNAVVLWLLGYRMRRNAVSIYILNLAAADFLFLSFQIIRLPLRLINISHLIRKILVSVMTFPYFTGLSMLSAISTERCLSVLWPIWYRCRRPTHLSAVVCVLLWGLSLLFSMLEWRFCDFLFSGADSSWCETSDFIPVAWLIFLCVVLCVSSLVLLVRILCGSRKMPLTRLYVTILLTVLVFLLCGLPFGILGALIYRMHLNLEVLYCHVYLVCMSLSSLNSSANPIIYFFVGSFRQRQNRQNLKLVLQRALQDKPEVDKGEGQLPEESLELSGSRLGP

MRGPRX4 + RAMP3 = target: T2, MRGPRX4 + RAMP3 (Homo sapiens, UniProt Q96LA9); experiment: IP1 accumulation, MRGPRX4 coexpressed with RAMP3; format: cell-based; conditions: for activation at 100 µM / activation at 20 µM / activation at 4 µM / activation at 0.8 µM / activation at […] / activation at 0.032 µM: 2 h; for EC50: Figure 4a top, individual replicates, read-out: potency (converted)
T2 construct: expressed in transfected cells; host or cells: HEK293T
T2 sequence (Q96LA9 whole entry): as above

Compound: CC(C)[C@H]1CC[C@H](C(=O)N[C@H](Cc2ccccc2)C(=O)O)CC1 [Nateglinide]
- IP1 accumulation (normalized) (MRGPRX4 + RAMP2; log [nateglinide] (M) -6.79588): 3.625 and 3.074 and 3.358
- IP1 accumulation (normalized) (MRGPRX4 + RAMP2; log [nateglinide] (M) -7.49485): 3.035 and 3.588 and 4.695
- activation at 100 µM (MRGPRX4 + RAMP3; log [nateglinide] (M) -4, MRGPRX4+RAMP3 0.75pg 1:0.75, Supplementary Figure 5f, read-out: IP1 accumulation (normalized)): 80.5%
- activation at 20 µM (MRGPRX4 + RAMP3; log [nateglinide] (M) -4.69897, MRGPRX4+RAMP3 0.75pg 1:0.75, Supplementary Figure 5f, read-out: IP1 accumulation (normalized)): 75.4%
- activation at 4 µM (MRGPRX4 + RAMP3; log [nateglinide] (M) -5.39794, MRGPRX4+RAMP3 0.5pg 1:0.5, Supplementary Figure 5f, read-out: IP1 accumulation (normalized)): 44.2%
- activation at 4 µM (MRGPRX4 + RAMP3; log [nateglinide] (M) -5.39794, MRGPRX4+RAMP3 0.75pg 1:0.75, Supplementary Figure 5f, read-out: IP1 accumulation (normalized)): 36.8%
- activation at 0.8 µM (MRGPRX4 + RAMP3; log [nateglinide] (M) -6.09691, MRGPRX4+RAMP3 0.5pg 1:0.5, Supplementary Figure 5f, read-out: IP1 accumulation (normalized)): 21.5%
- activation at 0.8 µM (MRGPRX4 + RAMP3; log [nateglinide] (M) -6.09691, MRGPRX4+RAMP3 0.75pg 1:0.75, Supplementary Figure 5f, read-out: IP1 accumulation (normalized)): 14.8%
- activation at 0.8 µM (MRGPRX4 + RAMP3; log [nateglinide] (M) -6.09691, MRGPRX4+RAMP3 1pg 1:1, Supplementary Figure 5f, 5g, read-out: IP1 accumulation (normalized)): 20.8%
- activation at […] (MRGPRX4 + RAMP3; log [nateglinide] (M) -6.79588, MRGPRX4+RAMP3 0.5pg 1:0.5, Supplementary Figure 5f, read-out: IP1 accumulation (normalized)): 13.1%
- activation at […] (MRGPRX4 + RAMP3; log [nateglinide] (M) -6.79588, MRGPRX4+RAMP3 0.75pg 1:0.75, Supplementary Figure 5f, read-out: IP1 accumulation (normalized)): 12%
- activation at 0.032 µM (MRGPRX4 + RAMP3; log [nateglinide] (M) -7.49485, MRGPRX4+RAMP3 0.5pg 1:0.5, Supplementary Figure 5f, read-out: IP1 accumulation (normalized)): 12.9%
- activation at 0.032 µM (MRGPRX4 + RAMP3; log [nateglinide] (M) -7.49485, MRGPRX4+RAMP3 0.75pg 1:0.75, Supplementary Figure 5f, read-out: IP1 accumulation (normalized)): 9.2%
- activation at 0.032 µM (MRGPRX4 + RAMP3; log [nateglinide] (M) -7.49485, MRGPRX4+RAMP3 1pg 1:1, Supplementary Figure 5f, 5g, read-out: IP1 accumulation (normalized)): 13.1%
- activation at 100 µM (MRGPRX4 + RAMP3; ratio MRGPRX4:RAMP3 1:0.25, log [Nateglinide] (M) -4, Fig S3c, read-out: IP1 accumulation): 75.8%
- activation at 20 µM (MRGPRX4 + RAMP3; ratio MRGPRX4:RAMP3 1:0.25, log [Nateglinide] (M) -4.69897, Fig S3c, read-out: IP1 accumulation): 68.5%
- activation at 4 µM (MRGPRX4 + RAMP3; ratio MRGPRX4:RAMP3 1:0.25, log [Nateglinide] (M) -5.39794, Fig S3c, read-out: IP1 accumulation): 41%
- activation at 0.8 µM (MRGPRX4 + RAMP3; ratio MRGPRX4:RAMP3 1:0.25, log [Nateglinide] (M) -6.09691, Fig S3c, read-out: IP1 accumulation): 25.1%
- activation at […] (MRGPRX4 + RAMP3; ratio MRGPRX4:RAMP3 1:0.25, log [Nateglinide] (M) -6.79588, Fig S3c, read-out: IP1 accumulation): 23.1%
- activation at 0.032 µM (MRGPRX4 + RAMP3; ratio MRGPRX4:RAMP3 1:0.25, log [Nateglinide] (M) -7.49485, Fig S3c, read-out: IP1 accumulation): 21%
- activation at 100 µM (MRGPRX4 + RAMP3; ratio MRGPRX4:RAMP3 1:0.5, log [Nateglinide] (M) -4, Fig S3c, read-out: IP1 accumulation): 91%
- activation at 20 µM (MRGPRX4 + RAMP3; ratio MRGPRX4:RAMP3 1:0.5, log [Nateglinide] (M) -4.69897, Fig S3c, read-out: IP1 accumulation): 74.7%
- activation at 4 µM (MRGPRX4 + RAMP3; ratio MRGPRX4:RAMP3 1:0.5, log [Nateglinide] (M) -5.39794, Fig S3c, read-out: IP1 accumulation): 39.2%
- activation at 0.8 µM (MRGPRX4 + RAMP3; ratio MRGPRX4:RAMP3 1:0.5, log [Nateglinide] (M) -6.09691, Fig S3c, read-out: IP1 accumulation): 21.5%
- activation at […] (MRGPRX4 + RAMP3; ratio MRGPRX4:RAMP3 1:0.5, log [Nateglinide] (M) -6.79588, Fig S3c, read-out: IP1 accumulation): 16.2%
- activation at 0.032 µM (MRGPRX4 + RAMP3; ratio MRGPRX4:RAMP3 1:0.5, log [Nateglinide] (M) -7.49485, Fig S3c, read-out: IP1 accumulation): 16.8%
- activation at 100 µM (MRGPRX4 + RAMP3; ratio MRGPRX4:RAMP3 1:1, log [Nateglinide] (M) -4, Fig S3c, read-out: IP1 accumulation): 86.2%
- activation at 20 µM (MRGPRX4 + RAMP3; ratio MRGPRX4:RAMP3 1:1, log [Nateglinide] (M) -4.69897, Fig S3c, read-out: IP1 accumulation): 67.6%
- activation at 4 µM (MRGPRX4 + RAMP3; ratio MRGPRX4:RAMP3 1:1, log [Nateglinide] (M) -5.39794, Fig S3c, read-out: IP1 accumulation): 32.5%
- activation at 0.8 µM (MRGPRX4 + RAMP3; ratio MRGPRX4:RAMP3 1:1, log [Nateglinide] (M) -6.09691, Fig S3c, read-out: IP1 accumulation): 18.7%
- activation at […] (MRGPRX4 + RAMP3; ratio MRGPRX4:RAMP3 1:1, log [Nateglinide] (M) -6.79588, Fig S3c, read-out: IP1 accumulation): 15.5%
- activation at 0.032 µM (MRGPRX4 + RAMP3; ratio MRGPRX4:RAMP3 1:1, log [Nateglinide] (M) -7.49485, Fig S3c, read-out: IP1 accumulation): 13.9%
- activation at 100 µM (MRGPRX4 + RAMP3; ratio MRGPRX4:RAMP3 1:2, log [Nateglinide] (M) -4, Fig S3c, read-out: IP1 accumulation): 83.7%
- activation at 4 µM (MRGPRX4 + RAMP3; ratio MRGPRX4:RAMP3 1:2, log [Nateglinide] (M) -5.39794, Fig S3c, read-out: IP1 accumulation): 28.1%
- activation at 0.8 µM (MRGPRX4 + RAMP3; ratio MRGPRX4:RAMP3 1:2, log [Nateglinide] (M) -6.09691, Fig S3c, read-out: IP1 accumulation): 16.1%
- activation at […] (MRGPRX4 + RAMP3; ratio MRGPRX4:RAMP3 1:2, log [Nateglinide] (M) -6.79588, Fig S3c, read-out: IP1 accumulation): 14.2%
- activation at 0.032 µM (MRGPRX4 + RAMP3; ratio MRGPRX4:RAMP3 1:2, log [Nateglinide] (M) -7.49485, Fig S3c, read-out: IP1 accumulation): 12.5%
- Emax (MRGPRX4 + RAMP3; Figure 4a bottom, DNA ratio MRGPRX4:RAMP3 1:0.5, MRGPRX4 alone = 100, read-out: efficacy): 86.9%
- EC50 (MRGPRX4 + RAMP3; DNA ratio MRGPRX4:RAMP3 1:0.25): 11.8 µM and 9.51 µM and 7.13 µM
- EC50 (MRGPRX4 + RAMP3; DNA ratio MRGPRX4:RAMP3 1:0.5): 11.4 µM and 8.91 µM and 11.9 µM
- EC50 (MRGPRX4 + RAMP3; DNA ratio MRGPRX4:RAMP3 1:0.75): 11.6 µM and 10 µM and 5.04 µM
